Here are results for 37 compounds from patent US20140120083A1, “TREATMENT OF CANCERS USING PI3 KINASE ISOFORM MODULATORS” (INFINITY PHARMACEUTICALS, INC., priority 2012, published 2014).

What all share (format): biochemical
The target in one test is PI3K δ (Homo sapiens, UniProt O00329). The test is described as follows: In vitro IC50, PI3K δ. Also noted: purchased Upstate. An excerpt:
(§1) An exemplary system is PI 3-Kinase (human) HTRF™ Assay from Upstate.

The target in another test is PI3K β (Homo sapiens, UniProt P42338). The test is described as follows: In vitro IC50, PI3K β.
From the text: as §1

The target in another test is T1, PI3K α (Homo sapiens, UniProt P42336).
T1 construct: purchased Upstate
The test is described as follows: In vitro IC50, PI3K α.
From the text: as §1

In the next test the target is T2, PI3K γ (Homo sapiens, UniProt P48736).
T2 construct: purchased Sigma
The test is described as follows: In vitro IC50, PI3K γ.
From the text: as §1

Sequence of PI3K δ (O00329 whole entry): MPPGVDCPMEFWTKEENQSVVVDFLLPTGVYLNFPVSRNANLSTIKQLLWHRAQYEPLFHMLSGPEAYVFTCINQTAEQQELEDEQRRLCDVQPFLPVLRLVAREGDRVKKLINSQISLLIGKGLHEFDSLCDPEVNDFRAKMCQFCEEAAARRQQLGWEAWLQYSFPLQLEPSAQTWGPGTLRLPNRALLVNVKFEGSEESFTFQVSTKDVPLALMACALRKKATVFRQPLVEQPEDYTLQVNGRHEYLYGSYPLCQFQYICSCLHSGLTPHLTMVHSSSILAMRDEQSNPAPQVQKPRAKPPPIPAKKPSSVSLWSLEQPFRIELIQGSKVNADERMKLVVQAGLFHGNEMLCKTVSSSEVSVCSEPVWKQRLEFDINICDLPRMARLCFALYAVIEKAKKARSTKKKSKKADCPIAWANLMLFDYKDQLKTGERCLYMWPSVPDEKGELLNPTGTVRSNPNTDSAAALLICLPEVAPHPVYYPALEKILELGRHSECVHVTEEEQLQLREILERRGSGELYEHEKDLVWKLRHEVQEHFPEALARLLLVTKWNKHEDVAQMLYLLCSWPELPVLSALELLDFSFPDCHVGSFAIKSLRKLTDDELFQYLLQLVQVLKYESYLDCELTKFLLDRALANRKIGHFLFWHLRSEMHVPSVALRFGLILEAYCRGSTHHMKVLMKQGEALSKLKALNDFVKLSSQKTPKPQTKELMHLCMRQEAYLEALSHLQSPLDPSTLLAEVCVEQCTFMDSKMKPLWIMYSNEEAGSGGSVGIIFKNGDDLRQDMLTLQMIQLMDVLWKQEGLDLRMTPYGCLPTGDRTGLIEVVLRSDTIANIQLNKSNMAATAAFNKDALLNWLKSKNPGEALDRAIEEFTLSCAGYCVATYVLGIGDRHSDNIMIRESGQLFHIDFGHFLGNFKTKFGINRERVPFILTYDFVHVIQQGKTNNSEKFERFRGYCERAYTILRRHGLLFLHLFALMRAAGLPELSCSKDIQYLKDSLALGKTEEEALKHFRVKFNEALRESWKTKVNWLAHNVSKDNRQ
Sequence of PI3K δ (P27986 whole entry partner): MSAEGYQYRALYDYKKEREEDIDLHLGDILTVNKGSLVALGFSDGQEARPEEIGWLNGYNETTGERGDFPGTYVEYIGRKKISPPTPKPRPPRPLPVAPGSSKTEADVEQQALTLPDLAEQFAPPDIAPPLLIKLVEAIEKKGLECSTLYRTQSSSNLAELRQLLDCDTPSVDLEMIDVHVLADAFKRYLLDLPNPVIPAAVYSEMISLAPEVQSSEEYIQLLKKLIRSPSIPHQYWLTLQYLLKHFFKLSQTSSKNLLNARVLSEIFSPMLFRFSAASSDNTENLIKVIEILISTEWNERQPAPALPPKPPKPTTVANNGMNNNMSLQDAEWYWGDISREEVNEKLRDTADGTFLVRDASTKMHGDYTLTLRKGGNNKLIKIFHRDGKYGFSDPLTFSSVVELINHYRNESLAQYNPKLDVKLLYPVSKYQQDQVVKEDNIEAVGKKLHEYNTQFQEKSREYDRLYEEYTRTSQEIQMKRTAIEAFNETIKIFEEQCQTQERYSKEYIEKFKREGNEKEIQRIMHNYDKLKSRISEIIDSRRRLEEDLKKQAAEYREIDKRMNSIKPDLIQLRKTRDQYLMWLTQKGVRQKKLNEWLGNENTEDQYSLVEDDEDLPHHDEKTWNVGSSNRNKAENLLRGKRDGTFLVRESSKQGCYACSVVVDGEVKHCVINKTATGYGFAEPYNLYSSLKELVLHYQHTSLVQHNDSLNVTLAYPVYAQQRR
Sequence of PI3K β (P42338 whole entry): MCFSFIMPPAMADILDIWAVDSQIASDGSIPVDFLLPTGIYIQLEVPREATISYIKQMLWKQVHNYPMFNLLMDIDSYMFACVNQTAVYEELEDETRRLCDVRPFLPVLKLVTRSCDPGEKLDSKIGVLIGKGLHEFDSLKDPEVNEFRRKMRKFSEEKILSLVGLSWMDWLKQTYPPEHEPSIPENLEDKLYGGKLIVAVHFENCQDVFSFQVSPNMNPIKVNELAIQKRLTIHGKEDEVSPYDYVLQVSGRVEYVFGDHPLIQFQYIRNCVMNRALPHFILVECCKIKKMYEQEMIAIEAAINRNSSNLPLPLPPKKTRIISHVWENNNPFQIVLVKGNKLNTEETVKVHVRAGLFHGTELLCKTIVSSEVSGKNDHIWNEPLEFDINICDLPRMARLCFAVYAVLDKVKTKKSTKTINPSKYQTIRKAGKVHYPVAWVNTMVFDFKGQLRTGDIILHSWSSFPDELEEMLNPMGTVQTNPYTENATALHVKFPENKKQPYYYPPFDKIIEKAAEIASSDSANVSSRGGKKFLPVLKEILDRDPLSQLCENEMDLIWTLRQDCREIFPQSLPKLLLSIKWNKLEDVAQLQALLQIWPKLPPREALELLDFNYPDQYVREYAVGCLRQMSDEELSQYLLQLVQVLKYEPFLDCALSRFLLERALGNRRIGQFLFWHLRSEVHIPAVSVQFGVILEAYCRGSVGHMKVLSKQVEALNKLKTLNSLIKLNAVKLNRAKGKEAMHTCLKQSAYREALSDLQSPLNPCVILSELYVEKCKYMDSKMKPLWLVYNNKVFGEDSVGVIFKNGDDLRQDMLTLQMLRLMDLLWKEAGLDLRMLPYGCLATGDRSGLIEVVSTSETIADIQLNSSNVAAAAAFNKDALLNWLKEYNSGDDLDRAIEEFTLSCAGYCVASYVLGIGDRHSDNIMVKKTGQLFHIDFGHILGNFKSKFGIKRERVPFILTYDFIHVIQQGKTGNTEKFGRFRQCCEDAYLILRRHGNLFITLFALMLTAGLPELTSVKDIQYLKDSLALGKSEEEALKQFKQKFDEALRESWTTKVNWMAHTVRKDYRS
T2 sequence (P48736 whole entry): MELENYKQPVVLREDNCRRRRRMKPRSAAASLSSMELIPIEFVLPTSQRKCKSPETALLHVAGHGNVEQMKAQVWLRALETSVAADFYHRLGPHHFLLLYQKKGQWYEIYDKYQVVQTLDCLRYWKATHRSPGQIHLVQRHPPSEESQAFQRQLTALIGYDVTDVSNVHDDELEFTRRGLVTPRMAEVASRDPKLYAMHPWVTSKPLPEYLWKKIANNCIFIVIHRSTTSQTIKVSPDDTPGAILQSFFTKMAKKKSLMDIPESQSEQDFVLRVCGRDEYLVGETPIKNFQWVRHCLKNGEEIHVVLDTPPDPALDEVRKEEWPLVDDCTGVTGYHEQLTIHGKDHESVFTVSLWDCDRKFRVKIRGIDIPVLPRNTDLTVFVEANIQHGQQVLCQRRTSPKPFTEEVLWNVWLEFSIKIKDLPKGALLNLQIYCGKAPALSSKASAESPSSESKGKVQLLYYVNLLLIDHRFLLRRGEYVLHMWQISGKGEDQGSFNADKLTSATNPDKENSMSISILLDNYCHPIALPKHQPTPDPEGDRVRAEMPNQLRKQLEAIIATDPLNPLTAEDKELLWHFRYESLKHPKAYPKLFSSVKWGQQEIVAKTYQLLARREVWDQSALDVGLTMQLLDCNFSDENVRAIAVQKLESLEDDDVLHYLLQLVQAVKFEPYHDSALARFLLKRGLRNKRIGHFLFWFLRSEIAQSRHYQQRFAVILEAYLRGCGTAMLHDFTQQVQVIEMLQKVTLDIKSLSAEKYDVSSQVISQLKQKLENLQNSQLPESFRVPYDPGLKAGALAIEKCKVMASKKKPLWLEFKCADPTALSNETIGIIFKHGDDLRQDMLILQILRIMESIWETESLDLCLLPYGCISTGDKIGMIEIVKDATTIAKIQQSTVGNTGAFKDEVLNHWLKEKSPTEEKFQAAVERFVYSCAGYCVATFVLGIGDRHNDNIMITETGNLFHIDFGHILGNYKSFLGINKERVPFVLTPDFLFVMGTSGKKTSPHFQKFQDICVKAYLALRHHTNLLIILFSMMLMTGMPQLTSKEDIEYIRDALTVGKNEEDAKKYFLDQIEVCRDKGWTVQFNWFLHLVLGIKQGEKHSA
T1 sequence (P42336 whole entry): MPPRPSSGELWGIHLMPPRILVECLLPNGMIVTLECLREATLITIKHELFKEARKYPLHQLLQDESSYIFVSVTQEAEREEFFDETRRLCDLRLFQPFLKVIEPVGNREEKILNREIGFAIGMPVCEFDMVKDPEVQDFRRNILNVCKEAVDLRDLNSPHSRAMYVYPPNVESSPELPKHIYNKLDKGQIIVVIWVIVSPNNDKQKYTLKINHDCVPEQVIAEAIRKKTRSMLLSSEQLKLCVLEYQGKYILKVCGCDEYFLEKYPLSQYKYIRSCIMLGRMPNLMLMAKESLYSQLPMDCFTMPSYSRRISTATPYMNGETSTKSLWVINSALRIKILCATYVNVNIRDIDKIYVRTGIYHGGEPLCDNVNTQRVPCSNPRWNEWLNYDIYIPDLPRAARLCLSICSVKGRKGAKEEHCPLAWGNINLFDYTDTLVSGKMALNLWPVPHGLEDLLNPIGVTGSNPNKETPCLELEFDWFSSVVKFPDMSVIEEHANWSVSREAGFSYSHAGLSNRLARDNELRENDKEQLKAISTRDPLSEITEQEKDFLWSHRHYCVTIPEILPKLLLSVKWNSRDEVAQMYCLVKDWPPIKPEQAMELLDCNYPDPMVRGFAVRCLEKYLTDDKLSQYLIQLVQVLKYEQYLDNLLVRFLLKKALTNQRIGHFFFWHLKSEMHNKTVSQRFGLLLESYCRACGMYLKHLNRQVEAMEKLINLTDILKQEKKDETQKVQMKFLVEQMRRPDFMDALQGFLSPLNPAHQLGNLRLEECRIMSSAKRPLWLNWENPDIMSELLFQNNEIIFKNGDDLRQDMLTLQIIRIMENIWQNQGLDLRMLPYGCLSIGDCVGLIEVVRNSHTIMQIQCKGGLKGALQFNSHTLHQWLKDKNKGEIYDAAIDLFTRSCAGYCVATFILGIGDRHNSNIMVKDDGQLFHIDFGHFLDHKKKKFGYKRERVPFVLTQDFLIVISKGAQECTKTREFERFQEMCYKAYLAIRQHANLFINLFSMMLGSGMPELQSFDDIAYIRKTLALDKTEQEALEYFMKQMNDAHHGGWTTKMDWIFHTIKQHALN
T1 sequence (P27986 whole entry partner): as the sequence (P27986 whole entry partner) above

`Nc1ncnc2c1c(-c1cc(O)cc(F)c1)nn2Cc1cc2cccc(Cl)c2c(=O)n1C1CC1` [Compound 142]: the 50% inhibitory concentration (IC50) against PI3K δ is below 100 nM; at PI3K β, below 0.1 µM; on PI3K α, below 0.1 µM; against PI3K γ, below 100 nM.

For the compound `Cc1cccc2cc(Cn3nc(-c4cc(O)cc(F)c4)c4c(N)ncnc43)n(-c3ccccc3C(C)C)c(=O)c12` [Compound 95], the IC50 was below 100 nM against PI3K δ, below 1 µM against PI3K β, below 1 µM against PI3K α and below 100 nM at PI3K γ.

For `Cc1ccccc1-n1c(Cn2nc(-c3nn[nH]n3)c3c(N)ncnc32)cc2cccc(C)c2c1=O` [Compound 207], the IC50 at PI3K δ is below 100 nM; against PI3K β it was below 10 µM; against PI3K α, below 10 µM; at PI3K γ, below 100 nM.

For `Cc1cccc2cc(Cn3nc(I)c4c(N)ncnc43)n(-c3ccccc3O)c(=O)c12` [Compound 79], the IC50 against PI3K δ was below 100 nM; at PI3K β it was above 10 µM; against PI3K α, above 10 µM; against PI3K γ, below 100 nM.

As to `CCC(Nc1ncnc2[nH]cnc12)c1cc2cccc(C)c2c(=O)n1-c1cc(F)cc(F)c1` (stereo not shown) [Compound 224], the IC50 against PI3K δ was below 100 nM; against PI3K β it was above 10 µM; at PI3K α, above 10 µM; against PI3K γ, below 10000 nM.

Consider `Cc1cccc2cc([C@H](C)Nc3cc(N)nc(N)n3)n(-c3ccccc3)c(=O)c12` [Compound 286], for which the IC50 was below 1000 nM against PI3K δ, above 10 µM at PI3K β, above 10 µM against PI3K α and below 1000 nM at PI3K γ.

In the case of `Cc1cccc2cc([C@H](C)Nc3ncnc4ccccc34)n(-c3ccccc3)c(=O)c12` [Compound 238], the half-inhibitory concentration (IC50) at PI3K δ was below 100 nM; against PI3K β it was above 10 µM; against PI3K α it was above 10 µM; against PI3K γ, below 1000 nM.

On to `Cc1cccc2cc([C@H](C)Nc3nc(N)ncc3Cl)n(-c3ccccc3)c(=O)c12` [Compound 249], for which the IC50 on PI3K δ is below 100 nM; at PI3K β it was below 10 µM; on PI3K α it was above 10 µM; against PI3K γ, below 100 nM.

`Cc1ccccc1-n1c(Cn2nc(C#CCO)c3c(N)ncnc32)cc2cccc(C)c2c1=O` [Compound 11]: the IC50 was below 100 nM at PI3K δ, above 10 µM on PI3K β, above 10 µM at PI3K α and below 1000 nM against PI3K γ.

On to `Cc1cccc2cc([C@@H](C)Nc3ncnc4[nH]cnc34)n(C3CCC3)c(=O)c12` [Compound 197], for which the IC50 on PI3K δ is above 10000 nM; against PI3K β, above 10 µM; at PI3K α it was above 10 µM; against PI3K γ, below 10000 nM.

On to `Cc1cccc2cc(Cn3nc(-c4ccc5nc(N)sc5c4)c4c(N)ncnc43)n(-c3ccccc3)c(=O)c12` [Compound 252], for which the IC50 is below 100 nM on PI3K δ, below 1 µM on PI3K β, below 0.1 µM at PI3K α and below 100 nM against PI3K γ.

In the case of `Cc1cccc2cc(Cn3nc(-c4ccc(F)c(O)c4)c4c(N)ncnc43)n(-c3ccccc3F)c(=O)c12` [Compound 9], the IC50 on PI3K δ was below 100 nM; against PI3K β it was above 10 µM; against PI3K α, above 10 µM; against PI3K γ it was below 1000 nM.

On to `Cc1cccc2cc(Cn3nc(-c4cnn(C)c4)c4c(N)ncnc43)n(-c3ccccc3F)c(=O)c12` [Compound 164], for which the IC50 is below 10000 nM at PI3K δ, above 10 µM against PI3K β, above 10 µM on PI3K α and below 10000 nM against PI3K γ.

In the case of `COc1ccccc1-n1c(Cn2nc(C#C[C@@H](C)O)c3c(N)ncnc32)cc2cccc(C)c2c1=O` [Compound 80], the IC50 is below 100 nM against PI3K δ, above 10 µM against PI3K β, above 10 µM against PI3K α and below 1000 nM against PI3K γ.

In the case of `Cc1cccc2cc([C@H](C)Nc3ncnc4[nH]c(Cl)nc34)n(-c3ccccc3)c(=O)c12` [Compound 261], the IC50 against PI3K δ is above 10000 nM; on PI3K β, above 10 µM; against PI3K α, above 10 µM; at PI3K γ, below 10000 nM.

Consider `Cc1cccc2cc(Cn3nc(-c4ccc5sc(N)nc5c4)c4c(N)ncnc43)n(-c3ccccc3)c(=O)c12` [Compound 277], for which the 50% inhibitory concentration (IC50) at PI3K δ is below 100 nM; against PI3K β, below 1 µM; against PI3K α, below 1 µM; on PI3K γ it was below 100 nM.

Take `Cc1cccc2cc(Cn3nc(I)c4c(N)ncnc43)n(C(C)C)c(=O)c12` [Compound 60]: the IC50 is below 100 nM on PI3K δ, above 10 µM at PI3K β, above 10 µM on PI3K α and above 10000 nM against PI3K γ.

Regarding `Cc1ccccc1-n1c(Cn2nc(-c3ccc(O)cc3)c3c(N)ncnc32)cc2cccc(C)c2c1=O` [Compound 36], the IC50 is below 1000 nM against PI3K δ, above 10 µM at PI3K β, above 10 µM against PI3K α and below 100 nM against PI3K γ.

`Cc1ccccc1-n1c(Cn2nc(-c3ccc4ncnc(N)c4c3)c3c(N)ncnc32)cc2cccc(C)c2c1=O` [Compound 152]: the IC50 was below 100 nM at PI3K δ, above 10 µM against PI3K β, below 10 µM against PI3K α and below 100 nM at PI3K γ.

With `COc1ccc(-c2nn(Cc3cc4cccc(C)c4c(=O)n3-c3ccccc3C)c3ncnc(N)c23)cc1OC` [Compound 44], the IC50 is below 1000 nM at PI3K δ, above 10 µM at PI3K β, above 10 µM at PI3K α and below 100 nM on PI3K γ.

`COc1cc(-c2nn(Cc3cc4cccc(C)c4c(=O)n3-c3ccccc3F)c3ncnc(N)c23)ccc1Cl` [Compound 22]: the IC50 on PI3K δ is below 10000 nM; at PI3K β, above 10 µM; at PI3K α it was above 10 µM; at PI3K γ, below 1000 nM.

`CCc1ccccc1-n1c(Cn2nc(-c3cccc(O)c3)c3c(N)ncnc32)cc2cccc(C)c2c1=O` [Compound 88]: the 50% inhibitory concentration (IC50) against PI3K δ was below 100 nM; against PI3K β, above 10 µM; against PI3K α, above 10 µM; on PI3K γ it was below 100 nM.

As to `Cc1cccc2cc(Cn3nc(/C=C4/CCNC4=O)c4c(N)ncnc43)n(-c3ccccc3F)c(=O)c12` [Compound 172], the IC50 on PI3K δ was below 10000 nM; against PI3K β, above 10 µM; on PI3K α it was above 10 µM; on PI3K γ, above 10000 nM.

Regarding `Cc1cccc2cc([C@H](C)Nc3ncnc4[nH]cc(F)c34)n(C3CC3)c(=O)c12` [Compound 278], the IC50 against PI3K δ was below 100 nM; on PI3K β it was below 0.1 µM; against PI3K α, below 1 µM; at PI3K γ, below 100 nM.

Take `Cc1cccc2cc(C(C)Nc3ncnc4[nH]cnc34)n(-c3ccccc3)c(=O)c12` (stereo not shown) [Compound 210]: the IC50 is below 100 nM on PI3K δ, below 10 µM on PI3K β, below 10 µM against PI3K α and below 100 nM against PI3K γ.

`Cc1cccc2cc(C(C)Nc3ncnc4[nH]cnc34)n(-c3ccccc3F)c(=O)c12` (stereo not shown) [Compound 167]: the half-maximal inhibitory concentration (IC50) is below 100 nM at PI3K δ, below 10 µM against PI3K β, above 10 µM against PI3K α and below 100 nM at PI3K γ.

For the compound `Cc1cccc2cc([C@H](C)NC3CCOCC3)n(-c3ccccc3)c(=O)c12` [Compound 259], the IC50 at PI3K δ is above 10000 nM; against PI3K β, above 10 µM; on PI3K α, above 10 µM; on PI3K γ, above 10000 nM.

Turning to `CCC(Nc1ncnc2[nH]cnc12)c1cc2cccc(C)c2c(=O)n1C1CCN(C)CC1` (stereo not shown) [Compound 228], the IC50 against PI3K δ was below 1000 nM; at PI3K β it was below 10 µM; against PI3K α, above 10 µM; at PI3K γ, above 10000 nM.

Consider `CC(=O)Nc1nc2cc(-c3nn(Cc4cc5cccc(C)c5c(=O)n4-c4ccccc4C)c4ncnc(N)c34)ccc2o1` [Compound 251], for which the IC50 was below 100 nM against PI3K δ, below 1 µM against PI3K β, below 10 µM against PI3K α and below 100 nM at PI3K γ.

As for `Cc1cccc2cc(Cn3nc(-c4cccc(O)c4)c4c(N)ncnc43)n(C(C)C)c(=O)c12` [Compound 62], the IC50 on PI3K δ was below 100 nM; against PI3K β it was below 1 µM; at PI3K α, above 10 µM; against PI3K γ, below 100 nM.

Consider `Cc1cccc2cc(Cn3nc(C#C[C@@H](C)O)c4c(N)ncnc43)n(-c3ccccc3Cl)c(=O)c12` [Compound 98], for which the IC50 against PI3K δ is below 100 nM; on PI3K β, above 10 µM; against PI3K α, above 10 µM; against PI3K γ, below 1000 nM.

Regarding `Cc1cccc2cc([C@H](C)Nc3nc(N)ncc3C(F)(F)F)n(-c3ccccc3)c(=O)c12` [Compound 324], the IC50 against PI3K δ is below 100 nM; at PI3K β it was below 10 µM; at PI3K α, above 10 µM; against PI3K γ it was below 100 nM.

`Cc1cccc2cc(Cn3nc(-c4cn[nH]c4)c4c(N)ncnc43)n(-c3ccccc3C(C)C)c(=O)c12` [Compound 185]: the IC50 is below 100 nM against PI3K δ, below 1 µM against PI3K β, below 10 µM on PI3K α and below 100 nM at PI3K γ.

Consider `Cc1cccc2cc(Cn3nc(-c4ccc(O)cc4)c4c(N)ncnc43)n(-c3ccccc3F)c(=O)c12` [Compound 46], for which the IC50 on PI3K δ is below 10000 nM; at PI3K β, above 10 µM; against PI3K α, above 10 µM; at PI3K γ, below 1000 nM.

Take `CC(=O)Nc1nc2ccc(-c3nn(Cc4cc5cccc(C)c5c(=O)n4-c4ccccc4C)c4ncnc(N)c34)cc2[nH]1` [Compound 296]: the IC50 against PI3K δ is below 100 nM; at PI3K β, below 10 µM; on PI3K α it was below 10 µM; at PI3K γ it was below 100 nM.

For the compound `Cc1ccccc1-n1c(Cn2nc(/C=C3/SC(=O)NC3=O)c3c(N)ncnc32)cc2cccc(C)c2c1=O` [Compound 173], the IC50 on PI3K δ is below 100 nM; on PI3K β it was below 10 µM; at PI3K α it was below 10 µM; on PI3K γ it was below 100 nM.

As for `CCc1ccccc1-n1c(Cn2nc(-c3cc(O)cc(F)c3)c3c(N)ncnc32)cc2cccc(C)c2c1=O` [Compound 89], the IC50 against PI3K δ is below 100 nM; at PI3K β it was below 1 µM; on PI3K α it was below 10 µM; against PI3K γ, below 100 nM.
